Results on one compound are retold here after patent US20040005623A1, “Method of determining tumor sensitivities to therapeutic drugs” (priority 2002, published 2004).

SMILES strings stand for the structures.

Test [1] concerns the target T1, wild-type KIT (Homo sapiens, UniProt P10721). Description: SCF-induced phosphorylation of wild-type KIT transiently expressed in COS cells (antiphosphotyrosine blot). In kind it is cell-based. Further details: expressed in transfected cells; host or cells: COS cells. Particulars: inhibitor at 0.1 to 1 μM, 1 hour, FIG. 1 lanes 3-4. The source says: (§1) Two subclones of the human mast cell leukemia line HMC1 were used to determine if the wild type and mutant KIT enzymes were able to interact with 2 drug compounds, […] and SU9529. Set forth as SEQ ID NO:1 is a nucleotide sequence for the wild type KIT enzyme (amino acid sequence is set forth as SEQ ID NO:2). One subclone, HMC1.1, expressed a valine to glycine substitution in codon 560 (Val560Gly) of the KIT intracellular juxtamembrane region. The other, HMC1.2, expressed the Val560Gly mutation and a second substitution, aspartate to valine in codon 816 (Asp816Val) in the kinase enzymatic pocket. […] For additional study of wild type and specific mutant forms of KIT, COS cells were used for transient expression of human wild-type and mutated c-KIT complementary DNAs, as described previously by Ma et al., “Inhibition of spontaneous receptor phosphorylation by residues in putatitive α-helix in the KIT intracellular juxtamembrane region,” J. Biol. Chem., 274:13399-13402 (1999). ST1571 is a commercially available drug manufactured by Novartis and developed as an inhibitor of the c-abl gene product. ST1571 has been reported to inhibit wild-type KIT and KIT expressed by HMC1. The other compound, SU9529, is manufactured by SUGEN and has not yet been made commercially available, although it has been published. […]
Target sequence in this assay (P10721 26-976): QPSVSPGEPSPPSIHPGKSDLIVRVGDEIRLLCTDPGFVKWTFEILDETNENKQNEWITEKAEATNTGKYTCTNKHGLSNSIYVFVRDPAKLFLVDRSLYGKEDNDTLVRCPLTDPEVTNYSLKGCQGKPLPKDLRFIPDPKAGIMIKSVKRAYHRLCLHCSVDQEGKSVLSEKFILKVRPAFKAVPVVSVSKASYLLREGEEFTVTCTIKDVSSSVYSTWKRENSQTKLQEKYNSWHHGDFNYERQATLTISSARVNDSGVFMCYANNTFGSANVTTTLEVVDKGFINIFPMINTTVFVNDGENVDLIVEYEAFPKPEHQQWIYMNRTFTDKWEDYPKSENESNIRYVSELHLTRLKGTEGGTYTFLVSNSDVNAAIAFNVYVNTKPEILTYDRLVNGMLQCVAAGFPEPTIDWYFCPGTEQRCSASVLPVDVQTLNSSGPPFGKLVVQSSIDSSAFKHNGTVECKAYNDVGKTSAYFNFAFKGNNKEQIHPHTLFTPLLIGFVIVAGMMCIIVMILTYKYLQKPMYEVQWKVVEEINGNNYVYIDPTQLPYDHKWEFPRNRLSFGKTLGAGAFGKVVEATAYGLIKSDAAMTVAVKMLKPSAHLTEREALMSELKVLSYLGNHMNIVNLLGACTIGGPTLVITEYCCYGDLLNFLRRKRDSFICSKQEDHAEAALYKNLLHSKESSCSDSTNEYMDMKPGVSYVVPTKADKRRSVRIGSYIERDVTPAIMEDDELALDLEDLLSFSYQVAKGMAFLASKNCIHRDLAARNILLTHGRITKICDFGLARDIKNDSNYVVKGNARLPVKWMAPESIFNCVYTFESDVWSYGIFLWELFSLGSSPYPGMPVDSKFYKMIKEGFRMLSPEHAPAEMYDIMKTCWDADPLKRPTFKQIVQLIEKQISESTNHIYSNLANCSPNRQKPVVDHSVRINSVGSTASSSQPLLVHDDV

The subject of test [2] is HMC1 line. The settings on record: at 1 μM; cited from earlier work.
The target of test [3] is T1, wild-type KIT. Particulars: has been reported; cited from earlier work.
Target sequence in this assay (P10721 26-976, species assumed): as the sequence (P10721 26-976) above
Test [4] has as its target T2, KIT Val560Gly juxtamembrane regulatory type mutant (Homo sapiens, UniProt P10721, V560G).
T2 construct: expressed in transfected cells; host or cells: COS cells
Description: SCF-independent constitutive phosphorylation of Val560Gly mutant KIT expressed in COS cells. In kind it is cell-based. The settings on record: inhibitor at 0.1 to 1 μM, FIG. 1 lanes 6-7.
Source text: as §1

Test [5] addresses KIT expressed by HMC1 (Homo sapiens, UniProt P10721, V560G). Particulars: has been reported; cited from earlier work.

T2 sequence (P10721 26-976 V560G): as the sequence (P10721 26-976) above, with V535G counted along it
Sequence of KIT expressed by HMC1 (P10721 26-976 V560G): as the sequence (P10721 26-976) above, with V535G counted along it

In the case of `Cc1ccc(NC(=O)c2ccc(CN3CCN(C)CC3)cc2)cc1Nc1nccc(-c2cccnc2)n1` [ST1571], the “inhibition of SCF-induced phosphorylation of wild-type KIT” value in test [1] is on record as “prevent the phosphorylation”. In test [2], the “previously reported ability to kill an HMC1 line” value is reported as “kill”. Also, the “reported inhibition of wild-type KIT” value in test [3] is reported as “inhibit”. The “inhibition of SCF-independent constitutive phosphorylation of Val560Gly KIT” value in test [4] is “inhibit”. For the same compound, the “reported inhibition of KIT expressed by HMC1” value in test [5] is recorded as “inhibit”.
